Target: human IDO1 (Homo sapiens, UniProt P14902)
Experiment: Assessment of human IDO-1 inhibitory activity in Hela cells (Interferon-gamma stimulated HeLa cells, Ehrlich reagent, absorbance 490 nm)
Format: cell-based
Parameters: endogenous in cells; host or cells: HeLa cells stimulated with interferon-gamma
Details: Hela Human IDO-1 cellular assay
Protocol: Exemplary compounds were tested for inhibition of IDO activity.
Assessment of Human IDO-1 Inhibitory Activity in Hela Cells
HeLa cells were seeded at 20,000 cells per 30 μL per well with RPMI/phenol red free media containing 10% FBS in a 384-well tissue culture plate (black with clear bottoms). 50 nL of compound was added to cells and incubated at 37° C. for one hour. 20 μL of the recombinant human Interferon-gamma (R&D System, Cat. #285-IF, at final concentration of 10 ng/ml) or recombinant murine Interferon-gamma (PEPROTECH® Inc., Cat. #315-05, final concentration of 5 ng/ml) was added to activate IDO signaling. The cells were incubated for 18 hours in 37° C. incubator with 5% CO2.
Compound treatment was stopped by adding 5 μl trichloroacetic acid to a final concentration of 3%. Subsequently, the cell plate was further incubated at 50° C. for 30 minute. An equal volume supernatant (20 μL) and 2% (w/v) Ehrlich reagent (4-dimethylaminobenzaldehyde) in glacial acetic acid were mixed in a new clear bottom 384-well plate. This plate was incubated at room temperature for 30 minutes. Absorbance at 490 nm was measured on Envision plate reader.
Compound IC50 values were calculated using counts from unstimulated (no INF-gamma treatment) wells as 100% inhibition. INF-gamma treatment without compound treatment as 0% inhibition.

human IDO1, sequence (P14902 whole entry): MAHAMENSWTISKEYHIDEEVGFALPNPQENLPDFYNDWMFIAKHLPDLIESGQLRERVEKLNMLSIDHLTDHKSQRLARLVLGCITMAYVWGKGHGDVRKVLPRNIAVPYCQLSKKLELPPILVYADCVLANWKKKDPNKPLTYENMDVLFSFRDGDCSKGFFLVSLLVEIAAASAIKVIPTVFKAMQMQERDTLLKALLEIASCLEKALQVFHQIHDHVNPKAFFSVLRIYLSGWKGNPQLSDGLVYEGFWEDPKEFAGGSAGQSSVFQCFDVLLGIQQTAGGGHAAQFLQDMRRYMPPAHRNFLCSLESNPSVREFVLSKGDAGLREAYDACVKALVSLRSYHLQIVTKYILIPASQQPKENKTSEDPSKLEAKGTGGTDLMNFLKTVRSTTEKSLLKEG

IC50 [nM]	SMILES
> 50	CCC(CC(=O)O)c1ccc(N2CCOCC2)c(NC(=O)Nc2ccc(C)cc2)c1 (single isomer, unassigned) [Example 8 Enantiomer 1, 3-(4-Morpholino-3-(3-(p-tolyl)ureido)phenyl)pentanoic acid]
< 5	CCCN(c1ccc(C(C)(C)CC(=O)O)cc1Nc1ccc(C#N)cc1)C1CCOCC1 [Example 22, 3-(3-((4-cyanophenyl)amino)-4-(propyl(tetrahydro-2H-pyran-4-yl)amino)phenyl)-3-methylbutanoic acid]
< 50	CCOc1ncc(Nc2cc([C@H](CC)CC(=O)Nc3ncco3)ccc2N(CC)C2CCOCC2)cn1 [Example 1346, (R)-3-(3-((2-Ethoxypyrimidin-5-yl)amino)-4-(ethyl(tetrahydro-2H-pyran-4-yl)amino)phenyl)-N-(oxazol-2-yl)pentanamide]
< 5	CCOc1ccc(Nc2cc([C@H](CC)CC(=O)O)ccc2N(CC)C2CCOCC2)nn1 (single isomer, unassigned) [Example 510]
> 50	CCCN(c1ccc(C(CC)CC(=O)O)cc1NC(=O)Nc1ccc(C)cc1)C1CCS(=O)(=O)CC1 (single isomer, unassigned) [Example 14 Enantiomer 1, 3-(4-((1,1-Dioxidotetrahydro-2h-thiopyran-4-yl)(propyl)amino)-3-(3-(p-tolyl)ureido)phenyl)pentanoic acid]
< 5	CCN(c1ccc([C@@H](COC)CC(=O)O)cc1Nc1ccc(Cl)cc1F)C1CCOCC1 (single isomer, unassigned) [Example 362]
< 5	CCCN(c1ccc([C@H](CC)CC(=O)O)cc1Nc1cnc(OC)nc1)C1CCOCC1 (single isomer, unassigned) [Example 551]
< 50	CC[C@H](CC(=O)O)c1ccc(N(CC)C2CCOCC2)c(Nc2ccc(OC)cn2)c1 (single isomer, unassigned) [Example 505]
< 50	CCN(c1ccc(C(C)CC(=O)O)cc1Nc1ccc2nc(C)sc2c1)C1CCOCC1 (single isomer, unassigned) [Example 629, 3-(4-(ethyl(tetrahydro-2H-pyran-4-yl)amino)-3-((2-methylbenzo[d]thiazol-6-yl)amino)phenyl)butanoic acid]
< 5	CCOc1ncc(Nc2cc(C(CC)CC(=O)O)cnc2N(CC(C)C)CC(C)C)cn1 (racemic) [Example 1376, (+/−)-3-(6-(Diisobutylamino)-5-((2-ethoxypyrimidin-5-yl)amino)pyridin-3-yl)pentanoic acid]
> 50	COCC(CC(=O)O)c1ccc(N2C[C@@H](C)O[C@@H](C)C2)c(NC(=O)Nc2ccc(Cl)cc2F)c1 (single isomer, unassigned) [Example 606]
< 50	CCN(c1ccc(C2(CC(=O)O)CCOCC2)cc1Nc1ccc(C#N)cc1)C1CCOCC1 [Example 154, 2-(4-(3-((4-cyanophenyl)amino)-4-(ethyl (tetrahydro-2H-pyran-4-yl)amino)phenyl)tetrahydro-2H-pyran-4-yl)acetic acid]
< 5	CCCN(c1ccc(C(CC)CC(=O)O)cc1Nc1ccc(C#N)cc1)C1CCS(=O)(=O)CC1 (single isomer, unassigned) [Example 12 Enantiomer 1, 3-(3-((4-Cyanophenyl)amino)-4-((1,1-dioxidotetrahydro-2H-thiopyran-4-yl)(propyl)amino)phenyl)pentanoic acid]
< 5	CCOc1ncc(Nc2cc([C@@H](CC(=O)O)C(F)(F)F)ccc2N(CC)C2CCOCC2)cn1 [Example 600, (R)-3-(3-((2-Ethoxypyrimidin-5-yl)amino)-4-(ethyl(tetrahydro-2H-pyran-4-yl)amino)phenyl)-4,4,4-trifluorobutanoic acid]
< 5	CCN(c1ccc(C(CC(=O)O)C2CC2)cc1Nc1ccc(Cl)cc1)C1CCOCC1 (single isomer, unassigned) [Example 33 Enantiomer 1, 3-(3-((4-Chlorophenyl)amino)-4-(ethyl(tetrahydro-2H-pyran-4-yl)amino)phenyl)-3-cyclopropylpropanoic acid]
< 50	CCOc1ncc(Nc2cc(C(C)CC(=O)O)ccc2N(CC)C2CCOCC2)cn1 (single isomer, unassigned) [Example 632, 3-(3-((2-ethoxypyrimidin-5-yl)amino)-4-(ethyl (tetrahydro-2H-pyran-4-yl)amino)phenyl)butanoic acid]
> 50	COCC(CC(=O)O)c1ccc(NC2CCOCC2)c(Nc2ccc(C#N)cc2)c1 (single isomer, unassigned) [Example 928 E1, 3-(3-((4-Cyanophenyl)amino)-4-((tetrahydro-2H-pyran-4-yl)amino)phenyl)-4-methoxybutanoic acid]
> 50	COCC(CC(=O)O)c1ccc(N2CCOC(C)(C)C2)c(NC(=O)Nc2ccc(Cl)cc2F)c1 (single isomer, unassigned) [Example 1318 E1, 3-(3-(3-(4-Chloro-2-fluorophenyl)ureido)-4-(2,2-dimethylmorpholino)phenyl)-4-methoxybutanoic acid]
< 50	CCC(CC(=O)O)c1cnc(N(CC)C2CCOCC2)c(NC(=O)Nc2ccc(C)cc2)c1 (racemic) [Example 1377, (+/−)-3-(6-(Ethyl(tetrahydro-2H-pyran-4-yl)amino)-5-(3-(p-tolyl)ureido)pyridin-3-yl)pentanoic acid]
< 5	CCN(c1ccc([C@@H](CC(=O)O)C(F)(F)F)cc1Nc1cnc(OC)nc1)C1CCOCC1 (single isomer, unassigned) [Example 601]
< 50	CC[C@@H](CC(=O)O)c1ccc(N(CC)C2CCOCC2)c(Nc2cnc(N(C)C)nc2)c1 (single isomer, unassigned) [Example 459]
< 5	CC[C@H](CC(=O)O)c1ccc(N(CC)C2CCOCC2)c(Nc2ccc(Cl)cn2)c1 (single isomer, unassigned) [Example 503]
< 50	CCC(CC(=O)O)c1ccc(N(CC)C2CCOC2)c(NC(=O)Nc2ccc(Cl)cc2F)c1 (single isomer, unassigned) [948 D2]
< 50	CCN(c1ccc([C@@H](COC)CC(=O)O)cc1Nc1ccc(C#N)c(C)c1)C1CCOCC1 (single isomer, unassigned) [Example 354]
< 5	CCN(c1ccc(C2(CC(=O)O)CCOCC2)cc1Nc1ccc(Cl)cc1)C1CCOCC1 [Example 155, 2-(4-(3-((4-chlorophenyl)amino)-4-(ethyl(tetrahydro-2H-pyran-4-yl)amino)phenyl)tetrahydro-2H-pyran-4-yl)acetic acid]
< 5	CC[C@@H](CC(=O)O)c1ccc(N(CC)C2CCOCC2)c(Nc2ccc(OC)cn2)c1 (single isomer, unassigned) [Example 462]
< 5	COCC(CC(=O)O)c1ccc(N(CC(F)F)C2CCOCC2)c(Nc2ccc(Cl)cc2)c1 (single isomer, unassigned) [Example 321 Enantiomer 1, 3-(3-((4-Chlorophenyl)amino)-4-((2,2-difluoroethyl)(tetrahydro-2H-pyran-4-yl)amino)phenyl)-4-methoxybutanoic acid]

SMILES	IC50 [nM]
CCOc1ncc(Nc2cc(C(CC)CC(=O)O)ccc2N2CCN(C(=O)OC(C)(C)C)CC2)cn1 (single isomer, unassigned) [Example 675, 3-(4-(4-(tert-Butoxycarbonyl)piperazin-1-yl)-3-((2-ethoxypyrimidin-5-yl)amino)phenyl)pentanoic acid]	> 50
